Measurements as given in patent US10441582B2 (priority 2016, dated 2019).
Converted amounts (≈) assume the structure as drawn.

Assays:
[1] = system: MKN-45 cells; assay: MTT assay, cytotoxicity against MKN-45 cells; settings: Homo sapiens, MKN-45, 24 h, read-out: IC50 (drug concentration that resulted in 50% of cell viability)
Description: The MKN-45 cell line was subcultured with RPMI1640 medium (supplemented with L-glutamine and 10% FBS) in a 5% CO2 incubator at 37° C. for 48 hours, and was then used in the test.
The cell line prepared in (2) above was added to each well.
Then, the cells were cultured in a 5% CO2 incubator at 37° C. for 24 hours, and 50 μL of MTT reagent was added thereto at a concentration of 2 mg/mL. Then, the cells were incubated in an incubator at 37° C. for 4 hours.
The cell culture was centrifuged to remove the supernatant, and 200 μL of DMSO was added to each well to dissolve the MTT-stained precipitate, after which the OD540 value at a wavelength of 540 nm was measured with an ELISA reader.

[2] = system: solid tumor of MKN-45 cells; assay: Solid tumor of MKN-45 cells in BALB/c nude mice, intratumoral administration; type: in vivo; settings: G5, 20 mg/kg intratumoral, FIG. 9
Description: After about 2 weeks, the ascites was collected and centrifuged at 2000 rpm, and the precipitate was washed twice and then stained with 0.4% […] blue, thereby obtaining 5×10^6 cells/100 μL.
In the first administration, a suspension volume of 50 μL/head was used regardless of body weight.
The medium dose used was a 2-fold dilution of the prepared injectable suspension, and the low dose used was a 4-fold dilution of the prepared injectable suspension.
The injectable suspension was dissolved by heating to a temperature of 42 to 45° C. on a water bath. Next, 20 μL of the solution was administered to the apex of the tumor by means of a 0.3 mL insulin syringe, and 10 μL of the solution was administered to each of three points of the bottom side of the tumor. Accordingly, a total of 50 μL of the solution was administered to the tumor.
On the final day of the test, the animals were biopsied and visually observed, and the mean weight of the tumors was measured.

[3] = G5, 20 mg/kg i.v., FIG. 2
Description: Fifty 5-week-old BALB/c nude mice (produced by Central Lab Animal Inc., Korea) were purchased and acclimated for 1 week before use in the test.
The data are expressed as mean±S.D. The results were statistically analyzed by ONE-WAY ANOVA and Student's t-test methods.

CC(=O)O[C@H]1C(=O)[C@@]2(C)[C@H]([C@H](OC(=O)c3ccccc3)[C@]3(O)C[C@H](OC(=O)[C@H](O)[C@@H](NC(=O)c4ccccc4)c4ccccc4)C(C)=C1C3(C)C)[C@]1(OC(C)=O)CO[C@@H]1C[C@@H]2O [Paclitaxel]
IC50 [1]: 0.1 µg/mL (≈ 0.117 µM) | State of solid tumor (photographs) ([2]; 2 weeks after administration): proliferated | Proliferation of tumor cells [2]: ≥ 5 fold | Decrease in body weight [3]: significant decrease in body weight
